Patent US9079863B2, “Crystalline forms for 5-amino-2,3-dihydrophthalazine-1,4-dione sodium salt, pharmaceutical preparations containing the same and method for the production of said forms” (METRIOPHARM AG, priority 2010, dated 2015)
Counter-ions that a name gives are not always drawn. Like-named read-outs stand apart in the source and are kept apart here.

Legend:
[1] = 30-300° C. under helium, sodium salt
Description: (Table 5). The solid phase transformation of the dihydrate according to U.S. Pat. No. 6,483,326 B1 was measured by means of the simultaneous thermogravimetry-differential thermal analysis with a Linseis L81-077 coupled with mass spectroscopy measurement with a Netzsch STA 449 C thermobalance, with MS and FTIR coupling at 30-300° C. under helium. The disintegration temperatures of forms I-II were determined with the same device at 30-500° C. in synthetic air (4 N2: 1 O2). The data were analyzed with the factory-set software Proteus.

physchem = settings: in water at room temperature, saturated solution; sodium salt
Description: Further, the solubility of the crystalline forms in a saturated solution was determined.

SMILES: Nc1cccc2c(=O)[nH][nH]c(=O)c12 [Dihydrate, 5-amino-2,3-dihydrophthalazine-1,4-dione sodium salt]
- Endothermous solid phase transformation ([1]; listed as dihydrate): 85 °C
- Endothermous solid phase transformation [1]: 85 °C ± 10 °C
- Solubility (physchem): 168 mg/mL
